In patent publication US8063225B2, “Tricyclic compound derivatives useful in the treatment of neoplastic diseases, inflammatory disorders and immunomodulatory disorders” (Chembridge Corporation, priority 2006, dated 2011):

Experiments:
Jak2 = molecular target: T1, Jak2 (Homo sapiens, UniProt O60674); test: Tyrosine kinase assay (Kinase-Glo or AlphaScreen), Jak2; details: biochemical tyrosine kinase assay
T1 construct: 6×His- or GST-tagged kinase domain fragments of the corresponding RTKs expressed in baculovirus system; host or cells: baculovirus system
Method in brief: (§1)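 Phosphorylation of poly(Glu-Tyr) by baculovirus-made kinase domains, 10 μM ATP, measured either as ATP depletion (Kinase-Glo, 37° C, 1 h) or phosphotyrosine AlphaScreen (room temperature, 30 min plus 60 min with beads).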

IGF1R tyrosine kinase = molecular target: T2, IGF1R tyrosine kinase (Homo sapiens, UniProt P08069); test: IGF1R tyrosine kinase assay (Kinase-Glo ATP depletion or PT66/PT100 AlphaScreen); details: biochemical tyrosine kinase assay
T2 construct: 6×His- or GST-tagged kinase domain fragments of the corresponding RTKs expressed in baculovirus system; host or cells: baculovirus system
Method in brief: as §1

Karpas-299 = test: Cell proliferation inhibition, Cell Titer-Glo, Karpas-299; assay type: cell-based; details: Homo sapiens; cell proliferation assay, Karpas-299 cells
Method in brief: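 In this standard 3-day proliferation assay, Karpas 299 cells plated at 2500-5000 cells per well in 384-well white, clear-bottomed plates were treated with compound dilutions. Cell Titer-Glo developing reagent was added following the manufacturer's protocol, luminescence reflecting ATP content was read on a multiwell plate reader, and IC50 curves were generated.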

H929 (multiple myeloma) = test: Cell proliferation inhibition, Cell Titer-Glo, H929; assay type: cell-based; details: Homo sapiens, NCI-H929; cell proliferation assay, H929 cells
Method in brief: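 Cells seeded at 2500-5000 per well with serially diluted compound for typically 3 days. Viable cells measured by ATP luminescence (Cell Titer-Glo); IC50 from proliferation-inhibition curves.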

Alk = molecular target: T3, Alk (Homo sapiens, UniProt Q9UM73); test: Tyrosine kinase assay (Kinase-Glo or AlphaScreen), Alk; details: biochemical tyrosine kinase assay
T3 construct: 6×His- or GST-tagged kinase domain fragments of the corresponding RTKs expressed in baculovirus system; host or cells: baculovirus system
Method in brief: as §1

K562 = test: Cell proliferation inhibition, Cell Titer-Glo, K562; assay type: cell-based; details: Homo sapiens; cell proliferation assay, K562 cells
Method in brief: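 Proliferation inhibition in human K562 cells was assessed in a standard 3-day assay. Cells (2500-5000 per well) in 384-well white, clear-bottomed plates received serial compound dilutions, then Cell Titer-Glo reagent was added per the manufacturer's protocol. Luminescence reflecting ATP content of metabolically active cells was counted in a multiwell reader, and IC50 curves were generated.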

T1 sequence (O60674 849-1124 limits assumed, species assumed): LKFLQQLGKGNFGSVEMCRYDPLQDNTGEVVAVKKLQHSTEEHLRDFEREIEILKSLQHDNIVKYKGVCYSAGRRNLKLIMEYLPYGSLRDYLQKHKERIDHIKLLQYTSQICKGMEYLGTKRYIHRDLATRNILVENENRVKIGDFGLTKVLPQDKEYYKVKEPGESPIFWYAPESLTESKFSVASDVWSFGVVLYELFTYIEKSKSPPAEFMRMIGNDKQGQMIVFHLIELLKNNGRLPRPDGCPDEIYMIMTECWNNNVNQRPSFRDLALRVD
T2 sequence (P08069 999-1274 limits assumed): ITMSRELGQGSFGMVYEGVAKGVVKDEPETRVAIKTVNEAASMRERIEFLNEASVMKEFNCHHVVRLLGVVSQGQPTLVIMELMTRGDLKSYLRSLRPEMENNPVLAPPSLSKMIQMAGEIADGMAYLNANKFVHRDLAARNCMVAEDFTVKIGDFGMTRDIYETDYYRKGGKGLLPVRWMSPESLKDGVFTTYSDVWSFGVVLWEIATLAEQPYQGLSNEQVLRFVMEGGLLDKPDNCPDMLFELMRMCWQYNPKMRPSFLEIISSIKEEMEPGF
T3 sequence (Q9UM73 1116-1392 limits assumed, species assumed): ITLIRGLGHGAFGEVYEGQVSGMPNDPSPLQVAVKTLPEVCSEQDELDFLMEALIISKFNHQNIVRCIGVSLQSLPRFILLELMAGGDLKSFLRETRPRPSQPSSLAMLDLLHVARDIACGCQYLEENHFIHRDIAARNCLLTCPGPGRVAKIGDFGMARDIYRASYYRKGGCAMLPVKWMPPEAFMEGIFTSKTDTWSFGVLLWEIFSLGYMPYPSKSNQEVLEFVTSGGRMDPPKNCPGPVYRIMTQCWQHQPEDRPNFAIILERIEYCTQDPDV

IC50 (Jak2) [µM] | IC50 (IGF1R tyrosine kinase) [nM] | IC50 (Karpas-299) [µM] | IC50 (H929 (multiple myeloma)) [µM] | IC50 (Alk) [µM] | IC50 (K562) [µM] | SMILES
5 to 15 | < 500 | > 15 | 5 to 15 | 0.5 to 5 | > 15 | Cc1cc(C)c(OC[C@H](O)CNc2cc[nH]c(=O)c2-c2nc3cc4c(cc3[nH]2)C(=O)N(C2CCN(C)CC2)C4=O)c(C)c1 [compound 98]
0.5 to 5 | 5000 to 15000 | > 15 | 0.5 to 5 | 5 to 15 | 5 to 15 | Cc1ccc2c(ccn2C[C@H](O)CNc2cc[nH]c(=O)c2-c2nc3cc4c(cc3[nH]2)C(=O)N(C2CCN(C)CC2)C4=O)c1 [compound 131]
0.5 to 5 | 500 to 5000 | > 15 | 5 to 15 | 5 to 15 | > 15 | CN1CCC(N2C(=O)c3cc4nc(-c5c(NC[C@@H](O)COc6cccc(C(F)(F)F)c6)cc[nH]c5=O)[nH]c4cc3C2=O)CC1 [compound 97]
5 to 15 | 500 to 5000 | > 15 | 5 to 15 | > 15 | > 15 | CN1CCC(N2C(=O)c3cc4nc(-c5c(NC[C@@H](O)COc6cccc(Cl)c6F)cc[nH]c5=O)[nH]c4cc3C2=O)CC1 [compound 96]

More lines, now with the values behind:

SMILES | IC50 (Jak2) [µM] | IC50 (IGF1R tyrosine kinase) [nM] | IC50 (Karpas-299) [µM] | IC50 (H929 (multiple myeloma)) [µM] | IC50 (Alk) [µM] | IC50 (K562) [µM]
Cc1cc(C)c(OC[C@H](O)CNc2cc[nH]c(=O)c2-c2nc3cc4c(cc3[nH]2)C(=O)N(C2CCN(C)CC2)C4=O)c(CS(C)(=O)=O)c1 [compound 84] | 0.5 to 5 | 500 to 5000 | > 15 | 0.5 to 5 | 0.5 to 5 | > 15
COc1ccc(OC[C@H](O)CNc2cc[nH]c(=O)c2-c2nc3cc4c(cc3[nH]2)C(=O)N(C2CCN(C)CC2)C4=O)c(OC)c1OC [compound 93] | > 15 | < 500 | 5 to 15 | 0.5 to 5 | > 15 | > 15
O=C1c2cc3nc(-c4c(NC[C@@H](O)c5cccc(Cl)c5)cc[nH]c4=O)[nH]c3cc2C(=O)N1[C@H]1CN2CCC1CC2 [compound 34] | 0.5 to 5 | < 500 | > 15 | 5 to 15 | 0.5 to 5 | > 15
CN1CCC(N2C(=O)c3cc4nc(-c5c(NC[C@@H](O)COc6ccc7ccccc7c6)cc[nH]c5=O)[nH]c4cc3C2=O)CC1 [compound 88] | 0.5 to 5 | 500 to 5000 | 5 to 15 | 5 to 15 | 0.5 to 5 | 5 to 15
CN1CCC(N2C(=O)c3cc4nc(-c5c(NC[C@@H](O)COc6cccc7ccccc67)cc[nH]c5=O)[nH]c4cc3C2=O)CC1 [compound 87] | 0.5 to 5 | < 500 | 5 to 15 | 5 to 15 | 0.5 to 5 | 5 to 15
